Key:
[1] = test system: SH-SY5Y cells; assay: H2O2-induced neuronal apoptosis after pre-treatment; format: cell-based; conditions: for toxic effects in SH-SY5Y cells: SUL 0.63 μM, L-DOPA 25 μM
Protocol: It was also evaluated whether the combination could have synergistic effects against neuronal apoptosis induced by H2O2, an oxidant agent in the CNS. In particular, apoptosis is measured 15 h later than 3 h treatment with H2O2 (300 μM).

[2] = preliminary phase I study (Shapiro et al. 2006); cited from earlier work
[3] = test system: neurons; conditions: prolonged SUL treatment, in vitro; cited from earlier work
[4] = test system: SH-SY5Y cells; assay: L-DOPA-induced neurotoxicity, pulse/chase treatment, Annexin-V/propidium iodide double staining

Row | Structure (SMILES) | toxic effects in SH-SY5Y cells [1] | H2O2-induced apoptosis after L-DOPA pre-treatment ([1]; pre-treatment 24 h, L-DOPA 25-100 μM tested, effect at more than 50 μM, H2O2 300 μM 3 h, read 15 h later, FIG. 4) | toxicity in humans [2] | effect against 1 methyl-4-phenyl-1,2,3,6-tetrahydropyridine [3] | protection of neurons against 6-hydroxydopamine [3] | protection of neurons against H2O2 damage [3] | L-DOPA-induced apoptosis, post-treatment ([4]; SUL 2.5 μM added after L-DOPA (400 μM) treatment, FIG. 3) | L-DOPA-induced apoptosis, co-treatment ([4]; SUL 0.63-2.5 μM co-treated with L-DOPA 400 μM, FIG. 2)
1 | N[C@@H](Cc1ccc(O)c(O)c1)C(=O)O [L-DOPA, 3,4-dihydroxyphenylalanine] | did not show any toxic effects | significantly decreased H2O2-induced apoptosis |  |  |  |  |  | 
2 | C[S+]([O-])CCCCN=C=S (stereo not drawn) [SUL, 4-(methylsulfinyl)butyl isothiocyanate] | did not show any toxic effects |  | absence of toxicity | does not show any effect | protects neurons | protects neurons | significant decrease of apoptosis | dose-dependent inhibitory effect

Reference: patent publication US20100260737A1, “COMBINATION BETWEEN AN ISOTHIOCYANATE AND LEVODOPA FOR PARKINSON'S DISEASE TREATMENT” (priority 2007, published 2010)
